For 25 molecules, IC50 results are on record in US9221832B2, “Heterocyclic amide derivatives as P2X7 receptor antagonists” (ACTELION PHARMACEUTICALS LTD., priority 2011, dated 2015).

SMILES strings stand for the structures.

The target in this experiment is human recombinant P2X7 receptor (Homo sapiens (Human), UniProt Q99572). Briefly: YO-PRO assay: P2X7 receptor antagonistic activity. It is filed as cell-based. Particulars: HEK cells expressing human P2X7.
Sequence of human recombinant P2X7 receptor (Q99572 whole entry): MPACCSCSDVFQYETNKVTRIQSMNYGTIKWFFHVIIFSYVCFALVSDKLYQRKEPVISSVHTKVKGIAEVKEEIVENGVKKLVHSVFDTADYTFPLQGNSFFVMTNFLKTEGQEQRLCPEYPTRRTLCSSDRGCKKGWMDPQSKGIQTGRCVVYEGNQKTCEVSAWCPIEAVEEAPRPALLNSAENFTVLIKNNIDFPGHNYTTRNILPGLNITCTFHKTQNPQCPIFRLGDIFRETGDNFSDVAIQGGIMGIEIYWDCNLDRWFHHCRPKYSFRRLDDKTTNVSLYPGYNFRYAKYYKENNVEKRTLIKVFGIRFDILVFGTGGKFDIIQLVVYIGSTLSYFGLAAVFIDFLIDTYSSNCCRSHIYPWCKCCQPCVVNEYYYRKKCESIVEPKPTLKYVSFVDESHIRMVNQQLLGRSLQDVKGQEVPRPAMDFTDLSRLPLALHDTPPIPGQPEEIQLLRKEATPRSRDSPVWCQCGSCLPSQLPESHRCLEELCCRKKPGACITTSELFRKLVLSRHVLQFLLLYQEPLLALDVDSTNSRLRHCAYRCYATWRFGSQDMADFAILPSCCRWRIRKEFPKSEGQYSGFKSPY
The term IC50 denotes the concentration that gives 50% inhibition. For `Cc1cc(Cl)cc(Cl)c1CC(=O)NC1COc2cncc(C)c21` (racemic) [Example 131, rac-2-(2,4-Dichloro-6-methyl-phenyl)-N-(4-methyl-2,3-dihydro-furo[2,3-c]pyridin-3-yl)-acetamide], the IC50 is 14 nM.
In the case of `O=C(Cc1ccc(Cl)cc1Cl)NC1COc2cnc(Cl)cc21` (racemic) [Example 116, rac-N-(5-Chloro-2,3-dihydro-furo[2,3-c]pyridin-3-yl)-2-(2,4-dichloro-phenyl)-acetamide], the IC50 worked out at 350 nM.
In the case of `O=C(Cc1c(Cl)cc(Cl)cc1C(F)(F)F)NC1COc2ncccc21` (racemic) [Example 33, rac-2-(2,4-Dichloro-6-trifluoromethyl-phenyl)-N-(2,3-dihydro-furo[2,3-b]pyridin-3-yl)-acetamide], the IC50 came to 242 nM.
Under `Cc1cncc2c1C(NC(=O)Cc1cccc(C(F)(F)F)c1Cl)CO2` (racemic) [Example 128, rac-2-(2-Chloro-3-trifluoromethyl-phenyl)-N-(4-methyl-2,3-dihydro-furo[2,3-c]pyridin-3-yl)-acetamide] stands 5.6 nM.
Regarding `Cc1ccccc1CC(=O)NC1COc2ncccc21` (racemic) [Example 11, rac-N-(2,3-Dihydro-furo[2,3-b]pyridin-3-yl)-2-o-tolyl-acetamide], the IC50 came out at 1310 nM.
Under `O=C(Cc1cccc(C(F)(F)F)c1Cl)NC1CCOc2ncccc21` (racemic) [Example 49, rac-2-(2-Chloro-3-trifluoromethyl-phenyl)-N-(3,4-dihydro-2H-pyrano[2,3-b]pyridin-4-yl)-acetamide] stands 17 nM; under `O=C(Cc1ccc(F)cc1C(F)(F)F)NC1COc2ncccc21` (racemic) [Example 18, rac-N-(2,3-Dihydro-furo[2,3-b]pyridin-3-yl)-2-(4-fluoro-2-trifluoromethyl-phenyl)-acetamide], 393 nM; under `O=C(Cc1cccc(C(F)(F)F)c1Cl)NC1COc2c1ccc[n+]2[O-]` (racemic) [Example 129, rac-2-(2-Chloro-3-trifluoromethyl-phenyl)-N-(7-oxy-2,3-dihydro-furo[2,3-b]pyridin-3-yl)-acetamide], 123 nM.
As for `Cc1cc(Cl)cc(Cl)c1CC(=O)NC1COc2nccc(C(F)(F)F)c21` (racemic) [Example 151, rac-2-(2,4-Dichloro-6-methyl-phenyl)-N-(4-trifluoromethyl-2,3-dihydro-furo[2,3-b]pyridin-3-yl)-acetamide], the figure is 6690 nM; as for `O=C(Cc1c(F)cc(Cl)cc1Cl)NC1CCOc2ncccc21` (racemic) [Example 70, rac-2-(2,4-Dichloro-6-fluoro-phenyl)-N-(3,4-dihydro-2H-pyrano[2,3-b]pyridin-4-yl)-acetamide], 386 nM.
Under `O=C(Cc1ccc(Cl)cc1)NC1COc2ncccc21` (racemic) [Example 15, rac-2-(4-Chloro-phenyl)-N-(2,3-dihydro-furo[2,3-b]pyridin-3-yl)-acetamide] stands 1410 nM; under `CCC(C(=O)NC1COc2ncccc21)c1ccc(Cl)cc1Cl` (stereo not shown) [Example 84, 2-(2,4-Dichloro-phenyl)-N-2,3-dihydro-furo[2,3-b]pyridin-3-yl-butyramide], 55 nM; under `CC(=O)c1cccc(CC(=O)NC2COc3ncccc32)c1Cl` (racemic) [Example 111, rac-2-(3-Acetyl-2-chloro-phenyl)-N-(2,3-dihydro-furo[2,3-b]pyridin-3-yl)-acetamide], 416 nM.
`Cc1ccnn1CC(=O)NC1CCOc2ncccc21` (racemic) [Example 63, rac-N-(3,4-Dihydro-2H-pyrano[2,3-b]pyridin-4-yl)-2-(5-methyl-pyrazol-1-yl)-acetamide]: the IC50 is above 5720 nM.
Turning to `N#Cc1ccc(CC(=O)NC2COc3ncccc32)c(Cl)c1` (racemic) [Example 96, rac-2-(2-Chloro-4-cyano-phenyl)-N-(2,3-dihydro-furo[2,3-b]pyridin-3-yl)-acetamide], the IC50 was determined as 123 nM.
On to `COc1ccc(CC(=O)NC2COc3ncccc32)c(OC)c1` (racemic) [Example 19, rac-N-(2,3-Dihydro-furo[2,3-b]pyridin-3-yl)-2-(2,4-dimethoxy-phenyl)-acetamide], for which the IC50 is above 6660 nM.
Under `O=C(Cc1cccc(C(F)(F)F)c1Cl)NC1COc2cnccc21` (racemic) [Example 87, rac-2-(2-Chloro-3-trifluoromethyl-phenyl)-N-(2,3-dihydro-furo[2,3-c]pyridin-3-yl)-acetamide] stands 4.6 nM; under `O=C(Cc1ccc(Cl)cc1Cl)NC1COc2c1ccnc2Cl` (racemic) [Example 106, rac-N-(7-Chloro-2,3-dihydro-furo[2,3-c]pyridin-3-yl)-2-(2,4-dichloro-phenyl)-acetamide], 52 nM.
Consider `O=C(Cc1cccc(C(F)(F)F)c1Cl)NC1COc2nc(Cl)ccc21` (racemic) [Example 143, rac-N-(6-Chloro-2,3-dihydro-furo[2,3-b]pyridin-3-yl)-2-(2-chloro-3-trifluoromethyl-phenyl)-acetamide], for which the IC50 worked out at 65 nM.
Under `O=C(NC1CCOc2ncccc21)C1(c2ccc(Cl)cc2Cl)CC1` (racemic) [Example 58, rac-1-(2,4-Dichloro-phenyl)-cyclopropanecarboxylic acid (3,4-dihydro-2H-pyrano[2,3-b]pyridin-4-yl)-amide] stands 294 nM.
Under `O=C(Cc1cccc(C(F)(F)F)c1Cl)NC1COc2ncccc21` (single isomer, unassigned) [Example 74, 2-(2-Chloro-3-trifluoromethyl-phenyl)-N-(2,3-dihydro-furo[2,3-b]pyridin-3-yl)-acetamide] stands 4.7 nM.
Under `CC(C(=O)NC1COc2ncccc21)c1ccc(Cl)cc1` (stereo not shown) [Example 23, 2-(4-Chloro-phenyl)-N-(2,3-dihydro-furo[2,3-b]pyridin-3-yl)-propionamide] stands 828 nM; under `Cc1cc(Cl)cc(Cl)c1CC(=O)NC1COc2ncccc21` (racemic) [Example 5, rac-2-(2,4-Dichloro-6-methyl-phenyl)-N-(2,3-dihydro-furo[2,3-b]pyridin-3-yl)-acetamide], 12 nM.
In the case of `CC(C(=O)NC1COc2ncccc21)c1ccc(Cl)cc1Cl` (single isomer, unassigned) [Example 95, 2-(2,4-Dichloro-phenyl)-N-2,3-dihydro-furo[2,3-b]pyridin-3-yl-propionamide], the IC50 was 104 nM.
With `Cc1ccc(OCC(=O)NC2CCOc3ncccc32)c(C)n1` (racemic) [Example 61, rac-N-(3,4-Dihydro-2H-pyrano[2,3-b]pyridin-4-yl)-2-(2,6-dimethyl-pyridin-3-yloxy)-acetamide], the IC50 is 814 nM.
